Measurements taken from PubChem BioAssay AID248 (DTP/NCI, 2004).
Values joined by “and” are separate entries in the source; they are usually repeats but may differ in a detail not shown here. Equal entries are not always repeated. Toxic doses and inconclusive results are not listed. Cut-off read from the data, not from the text of the source: active = T/C of 150% or more; inactive = T/C below 125%.

Tested on: L1210 leukemia ip in BDF1 mice, survival T/C
Assay: NCI In Vivo Anticancer Drug Screen. Data for tumor model L1210 Leukemia (intraperitoneal) in B6D2F1 (BDF1) mice
Settings: endpoint: mean survival time, higher = longer survival
In short: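 Each compound was tested against a transplantable tumor grown in mice. The endpoint was survival, with treated animals benchmarked against vehicle controls as a simple ratio.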

[1] = dose: 100.0 mg/kg/injection, schedule: Q04DX003 (ip), vehicle: Klucel (hydroxypropylcellulose) (HPC)
[2] = dose: 200.0 mg/kg/injection, schedule: Q04DX003 (ip), vehicle: Klucel (hydroxypropylcellulose) (HPC)
[3] = dose: 400.0 mg/kg/injection, schedule: Q04DX003 (ip), vehicle: Klucel (hydroxypropylcellulose) (HPC)
[4] = dose: 100.0 mg/kg/injection, schedule: Q01DX001 (ip), vehicle: saline
[5] = dose: 100.0 mg/kg/injection, schedule: Q01DX001 (ip), vehicle: saline with Tween-80
[6] = dose: 200.0 mg/kg/injection, schedule: Q01DX001 (ip), vehicle: saline with Tween-80
[7] = dose: 200.0 mg/kg/injection, schedule: Q01DX001 (ip), vehicle: saline
[8] = dose: 400.0 mg/kg/injection, schedule: Q01DX001 (ip), vehicle: saline
[9] = dose: 100.0 mg/kg/injection, schedule: Q01DX001 (ip), vehicle: carboxymethylcellulose (CMC)
[10] = dose: 200.0 mg/kg/injection, schedule: Q01DX001 (ip), vehicle: carboxymethylcellulose (CMC)
[11] = dose: 400.0 mg/kg/injection, schedule: Q01DX001 (ip), vehicle: carboxymethylcellulose (CMC)

Measured: T/C

COC(=O)c1cccc(F)c1C(=O)c1ccc2ccccc2c1
inactive: [1] 100 % of control | [2] 91 % of control | [3] 97 % of control

COc1cc(OC(C)=O)c2ncccc2c1OC(C)=O
inactive: [4] 94 % of control

CC(=O)c1sc2sc(C(C)=O)c(NC(=S)Nc3cccc(C(F)(F)F)c3)c2c1NC(=S)Nc1cccc(C(F)(F)F)c1
inactive: dose: 50.0 mg/kg/injection, schedule: Q04DX002 (ip), vehicle: saline with Tween-80 98 % of control and 99 % of control | [5] 96 % of control | dose: 100.0 mg/kg/injection, schedule: Q01DX009 (ip), vehicle: saline with Tween-80 96 % of control and 89 % of control | dose: 100.0 mg/kg/injection, schedule: Q04DX003 (ip), vehicle: saline with Tween-80 93 % of control | [6] 92 % of control | dose: 200.0 mg/kg/injection, schedule: Q01DX009 (ip), vehicle: saline with Tween-80 101 % of control and 86 % of control | dose: 200.0 mg/kg/injection, schedule: Q04DX003 (ip), vehicle: saline with Tween-80 90 % of control | dose: 400.0 mg/kg/injection, schedule: Q01DX001 (ip), vehicle: saline with Tween-80 100 % of control | dose: 400.0 mg/kg/injection, schedule: Q01DX009 (ip), vehicle: saline with Tween-80 96 % of control and 91 % of control

CC[N+](C)(CC)CCOc1cc(C)ccc1C(C)C
inactive: dose: 25.0 mg/kg/injection, schedule: Q04DX003 (ip), vehicle: saline 104 % of control | dose: 50.0 mg/kg/injection, schedule: Q04DX003 (ip), vehicle: saline 98 % of control | dose: 100.0 mg/kg/injection, schedule: Q04DX003 (ip), vehicle: saline 93 % of control and 98 % of control

O=C(O)CCC(=O)c1cc2ccccc2s1
inactive: [1] 92 % of control | [2] 99 % of control | [3] 99 % of control

O=C(O)C(Cc1ccc(O)c([N+](=O)[O-])c1)N1C(=O)c2ccccc2C1=O (stereo not given)
inactive: [4] 101 % of control | [7] 95 % of control | [8] 95 % of control

CCCCNC(=O)OC/C=C/CC(Cl)(Cl)Cl
inactive: dose: 100.0 mg/kg/injection, schedule: Q01DX009 (sc), vehicle: olive oil, sesame oil, peanut oil 103 % of control | dose: 100.0 mg/kg/injection, schedule: Q04DX003 (sc), vehicle: olive oil, sesame oil, peanut oil 95 % of control | dose: 200.0 mg/kg/injection, schedule: Q01DX009 (sc), vehicle: olive oil, sesame oil, peanut oil 101 % of control | dose: 200.0 mg/kg/injection, schedule: Q04DX003 (sc), vehicle: olive oil, sesame oil, peanut oil 108 % of control | dose: 400.0 mg/kg/injection, schedule: Q01DX009 (sc), vehicle: olive oil, sesame oil, peanut oil 101 % of control | dose: 400.0 mg/kg/injection, schedule: Q04DX003 (sc), vehicle: olive oil, sesame oil, peanut oil 94 % of control

CC(=O)NC(c1ccccc1)C(C)C (stereo not given)
inactive: [5] 92 % of control | [6] 103 % of control

COc1c(Br)c(Br)c(Br)c(OC)c1OC
inactive: dose: 50.0 mg/kg/injection, schedule: Q01DX001 (ip), vehicle: carboxymethylcellulose (CMC) 98 % of control | [9] 101 % of control | [10] 106 % of control | [11] 98 % of control

O=[N+]([O-])c1cc(F)c(F)cc1F
inactive: [1] 98 % of control | [2] 107 % of control

COC(=O)c1cn(/C=C/c2ccccc2)cn1
inactive: dose: 87.5 mg/kg/injection, schedule: Q04DX003 (ip), vehicle: Klucel (hydroxypropylcellulose) (HPC) 94 % of control | dose: 175.0 mg/kg/injection, schedule: Q04DX003 (ip), vehicle: Klucel (hydroxypropylcellulose) (HPC) 89 % of control | dose: 350.0 mg/kg/injection, schedule: Q04DX003 (ip), vehicle: Klucel (hydroxypropylcellulose) (HPC) 97 % of control

NNc1cc(NN)c2[nH]cnc2n1
inactive: dose: 25.0 mg/kg/injection, schedule: Q01DX001 (ip), vehicle: Klucel (hydroxypropylcellulose) (HPC) 100 % of control | dose: 25.0 mg/kg/injection, schedule: Q04DX003 (ip), vehicle: Klucel (hydroxypropylcellulose) (HPC) 102 % of control | dose: 50.0 mg/kg/injection, schedule: Q01DX001 (ip), vehicle: Klucel (hydroxypropylcellulose) (HPC) 93 % of control | dose: 50.0 mg/kg/injection, schedule: Q04DX003 (ip), vehicle: Klucel (hydroxypropylcellulose) (HPC) 105 % of control | dose: 100.0 mg/kg/injection, schedule: Q01DX001 (ip), vehicle: Klucel (hydroxypropylcellulose) (HPC) 100 % of control and 108 % of control | [1] 112 % of control

C[N+](C)(CCNCc1ccccc1)Cc1ccccc1
inactive: [4] 102 % of control | [7] 100 % of control | [8] 100 % of control

O=C(O)c1ccccc1Cc1ccc2c(c1)Cc1ccccc1-2
inactive: [9] 92 % of control | [10] 94 % of control | [11] 113 % of control

OCc1nc2cc(Cl)c(Cl)cc2[nH]1
inactive: [4] 93 % of control | [7] 96 % of control | [8] 102 % of control

NC(=O)C1C(=O)OC2(CCCC2)C1c1ccccc1 (stereo not given)
inactive: [1] 101 % of control | [2] 93 % of control | [3] 97 % of control

Nc1cc2c3c(cccc3c1Br)C(=O)N(Cc1ccccc1)C2=O
inactive: [3] 88 % of control

NNC(=O)c1c(C(N)=O)n[nH]c1C1OC(COCc2ccccc2)C(OCc2ccccc2)C1OCc1ccccc1 (stereo not given)
inactive: dose: 100.0 mg/kg/injection, schedule: Q01DX005 (ip), vehicle: saline 97 % of control and 93 % of control | dose: 200.0 mg/kg/injection, schedule: Q01DX005 (ip), vehicle: saline 100 % of control and 101 % of control
